Usually IC50 stands for the concentration that inhibits the measured activity by half.

The values below come from US11446298B2, “Pyrimidine derivatives” (Idorsia Pharmaceuticals Ltd, priority 2017, dated 2022).

Common to all, as to format: cell-based
The target in one experiment is T1, EP2 (Homo sapiens, UniProt P43116).
T1 construct: SF295 glioblastoma cells express high endogenous EP2 and no EP4; host or cells: SF295 glioblastoma cells
In words: hEP2 cAMP Assay (SF295 glioblastoma cells, HTRF cAMP, PGE2 75 nM). The following applies: antagonistic activity, PGE2 75 nM (EC80). In outline: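 IC50 values derive from duplicate-point curves of percent cAMP relative to DMSO, read by HTRF (665/620 nm) against a cAMP calibrator. Compounds (30 μM to 0.01 nM ranges) were given 45 min at room temperature before 30 min with 75 nM PGE2, in EP2-only SF295 cells with 2 mM IBMX.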

In another experiment the target is T2, EP4 (Homo sapiens, UniProt P35408).
T2 construct: BT549 breast cancer cells, express high endogenous EP4 levels and very low EP2 levels; host or cells: BT549 breast cancer cells
T2 sequence (P35408 whole entry): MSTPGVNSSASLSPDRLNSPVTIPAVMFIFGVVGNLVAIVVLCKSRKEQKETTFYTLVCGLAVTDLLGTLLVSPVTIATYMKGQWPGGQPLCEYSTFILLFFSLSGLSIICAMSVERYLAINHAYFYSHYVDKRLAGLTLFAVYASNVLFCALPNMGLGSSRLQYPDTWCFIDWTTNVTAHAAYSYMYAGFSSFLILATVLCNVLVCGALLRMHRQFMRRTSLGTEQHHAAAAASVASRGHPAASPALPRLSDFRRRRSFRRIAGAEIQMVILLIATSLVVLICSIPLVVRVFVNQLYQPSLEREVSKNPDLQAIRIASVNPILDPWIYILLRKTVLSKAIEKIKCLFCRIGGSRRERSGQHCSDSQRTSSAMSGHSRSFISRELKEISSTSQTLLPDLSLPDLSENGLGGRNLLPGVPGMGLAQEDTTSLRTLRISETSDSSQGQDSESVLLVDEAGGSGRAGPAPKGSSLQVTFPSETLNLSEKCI
Briefly: hEP4 cAMP Assay (BT549 breast cancer cells, HTRF cAMP, PGE2 6 nM). The following applies: antagonistic activity, PGE2 6 nM (EC80). In a few lines: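 BT549 cells (endogenous EP4, very low EP2) in HBSS/20 mM HEPES/0.2% BSA/2 mM IBMX, pre-incubated 45 min RT with compound, then stimulated 30 min RT with PGE2 6 nM (EC80). cAMP read by HTRF competitive immunoassay (665/620 nm), converted via calibrator to % of DMSO control; IC50 from duplicate dose-response curves.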
(In general: TR-FRET usually uses a lanthanide donor and a delayed reading to cut background.)

In another experiment the target is T3, PTGER2 (EP2) (Homo sapiens, UniProt P43116).
T3 construct: host or cells: HEK 293 (PathHunter, stably transfected)
T3 sequence (P43116 whole entry): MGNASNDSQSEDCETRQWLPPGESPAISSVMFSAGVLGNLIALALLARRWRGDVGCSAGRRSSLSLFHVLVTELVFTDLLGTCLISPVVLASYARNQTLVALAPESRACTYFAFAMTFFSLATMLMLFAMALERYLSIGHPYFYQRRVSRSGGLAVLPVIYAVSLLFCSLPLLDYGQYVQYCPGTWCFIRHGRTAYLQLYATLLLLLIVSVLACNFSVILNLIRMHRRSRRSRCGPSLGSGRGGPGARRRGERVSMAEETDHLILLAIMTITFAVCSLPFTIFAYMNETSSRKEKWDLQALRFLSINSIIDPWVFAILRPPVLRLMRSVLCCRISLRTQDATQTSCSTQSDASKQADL
Briefly: hEP2 b-Arrestin Assay (PathHunter HEK 293 PTGER2 b-arrestin cells, PGE2 5 μM). As to conditions: antagonistic activity, beta-arrestin assay, HEK 293 PTGER2 cells, PGE2 5 μM (EC80); read-out: hEP2 b-arr IC50. In outline: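 PathHunter enzyme-fragment complementation in HEK 293 cells: compounds (10 μM-2 nM or 1 μM-0.2 nM) pre-incubated 15 min at 37 °C, then 5 μM PGE2 (EC80) for 120 min at 37 °C. Chemiluminescence read after 1 h detection; IC50 from duplicate dose-response fits, means of repeats.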

A further experiment has as its target T4, PTGER4 (EP4) (Homo sapiens, UniProt P35408).
T4 construct: host or cells: HEK 293 (PathHunter, stably transfected)
Briefly: hEP4 b-Arrestin Assay (PathHunter HEK 293 PTGER4 b-arrestin cells, PGE2 20 nM). The following applies: antagonistic activity, beta-arrestin assay, HEK 293 PTGER4 cells, PGE2 20 nM (EC80); read-out: hEP4 b-arr IC50. In a few lines: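 PathHunter HEK 293 EP4 b-arrestin enzyme-complementation cells preincubated 15 min at 37° C with compound (10 μM-2 nM or 1 μM-0.2 nM), then stimulated 120 min with 20 nM PGE2 (EC80). Chemiluminescence read; IC50 from duplicate % activity vs DMSO, one-site fit, averaged over repeats.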

T1 sequence (P43116 whole entry): as above
T4 sequence (P35408 whole entry): as the sequence (P35408 whole entry) above

For `CCOc1cc(-c2cc(NCCc3cccc4c(C)cccc34)ncn2)ccc1C(=O)O` [Example 184, 2-Ethoxy-4-{6-[2-(5-methyl-naphthalen-1-yl)-ethylamino]-pyrimidin-4-yl}-benzoic acid], the IC50 amounted to 48 nM at EP2, 330 nM on EP4, 27 nM on PTGER2 (EP2) and 375 nM on PTGER4 (EP4).

In the case of `CCOc1cc(-c2cc(NCCc3c(OC)ccc4ccccc34)ncn2)sc1C(=O)NS(C)(=O)=O` [Example 136, N-(3-Ethoxy-5-{6-[2-(2-methoxy-naphthalen-1-yl)-ethylamino]-pyrimidin-4-yl}-thiophene-2-carbonyl)-methanesulfonamide], the IC50 on EP2 was found to be 10 nM; on EP4 it was 86 nM; at PTGER2 (EP2), 3 nM; on PTGER4 (EP4) it was 24 nM.

In the case of `CCOc1cc(-c2cc(NCCc3cccc4ccccc34)ncn2)sc1C(=O)O` [Example 9, 3-Ethoxy-5-[6-(2-naphthalen-1-yl-ethylamino)-pyrimidin-4-yl]-thiophene-2-carboxylic acid], the IC50 against EP2 was 9 nM; against EP4, 14 nM; at PTGER2 (EP2) it was 11 nM; on PTGER4 (EP4), 56 nM.

Take `CCOc1cc(-c2cc(NCCc3cccc4ccncc34)ncn2)sc1-c1noc(=O)[nH]1` [Example 139, 3-{3-Ethoxy-5-[6-(2-isoquinolin-8-yl-ethylamino)-pyrimidin-4-yl]-thiophen-2-yl}-[1,2,4]oxadiazol-5(4H)-one]: the half-maximal inhibitory concentration (IC50) at EP2 came to 526 nM; on EP4, 28 nM; at PTGER2 (EP2), 186 nM; on PTGER4 (EP4), 48 nM.

`CCOc1cc(-c2cc(NCCc3ccc(C)c4ccccc34)ncn2)ccc1C(=O)O` [Example 16, 2-Ethoxy-4-{6-[2-(4-methyl-naphthalen-1-yl)-ethylamino]-pyrimidin-4-yl}-benzoic acid]: the concentration for half-maximal inhibition (IC50) at EP2 came out at 176 nM; at EP4 it was 268 nM; on PTGER2 (EP2), 143 nM; on PTGER4 (EP4), 290 nM.

Take `CCOc1cc(-c2cc(NCCc3c(OC(F)F)ccc4ccccc34)ncn2)sc1C(=O)O` [Example 32, 5-{6-[2-(2-Difluoromethoxy-naphthalen-1-yl)-ethylamino]-pyrimidin-4-yl}-3-ethoxy-thiophene-2-carboxylic acid]: the concentration for half-maximal inhibition (IC50) against EP2 was 10 nM; against EP4 it was 72 nM; at PTGER2 (EP2), 10 nM; at PTGER4 (EP4), 19 nM.

Turning to `CCOc1cc(-c2cc(NCCc3cccc4ccsc34)ncn2)sc1C(=O)O` [Example 103, 5-[6-(2-Benzo[b]thiophen-7-yl-ethylamino)-pyrimidin-4-yl]-3-ethoxy-thiophene-2-carboxylic acid], the IC50 at EP2 was 79 nM; against EP4 it was 73 nM; on PTGER2 (EP2), 33 nM; at PTGER4 (EP4) it was 314 nM.

On to `CCSc1cc(-c2cc(NCCc3ccc(C)c4ccccc34)ncn2)ccc1C(=O)O` [Example 100, 2-Ethylsulfanyl-4-{6-[2-(4-methyl-naphthalen-1-yl)-ethylamino]-pyrimidin-4-yl}-benzoic acid], for which the half-maximal inhibitory concentration (IC50) turned out to be 206 nM against EP2, 76 nM against EP4, 133 nM at PTGER2 (EP2) and 206 nM at PTGER4 (EP4).

Turning to `CCOc1cc(-c2cc(NCCc3c(OC)ccc4cccnc34)ncn2)sc1C(=O)O` [Example 33, 3-Ethoxy-5-{6-[2-(7-methoxy-quinolin-8-yl)-ethylamino]-pyrimidin-4-yl}-thiophene-2-carboxylic acid], the half-inhibitory concentration (IC50) against EP2 was 78 nM; against EP4, 223 nM; at PTGER2 (EP2), 56 nM; on PTGER4 (EP4) it was 252 nM.

As for `CCOc1cc(-c2cc(NCCc3cccc4cc[nH]c34)ncn2)sc1C(=O)O` [Example 46, 3-Ethoxy-5-{6-[2-(1H-indol-7-yl)-ethylamino]-pyrimidin-4-yl}-thiophene-2-carboxylic acid], the IC50 against EP2 is 85 nM; on EP4, 244 nM; at PTGER2 (EP2), 110 nM; on PTGER4 (EP4), 311 nM.

As for `COc1ccc2ccccc2c1CCNc1cc(-c2ccc(-c3c(O)c(=O)c3=O)cc2)ncn1` [Example 116, 3-Hydroxy-4-(4-{6-[2-(2-methoxy-naphthalen-1-yl)-ethylamino]-pyrimidin-4-yl}-phenyl)-cyclobut-3-ene-1,2-dione], the IC50 against EP2 stood at 67 nM; against EP4, 241 nM; at PTGER2 (EP2), 25 nM; at PTGER4 (EP4) it was 1140 nM.

As for `CCOc1cc(-c2cc(NCCc3c(OC)ccc4ncccc34)ncn2)sc1-c1noc(=O)[nH]1` [Example 142, 3-(3-Ethoxy-5-{6-[2-(6-methoxy-quinolin-5-yl)-ethylamino]-pyrimidin-4-yl}-thiophen-2-yl)-[1,2,4]oxadiazol-5(4H)-one], the IC50 on EP2 was 40 nM; against EP4, 27 nM; on PTGER2 (EP2), 7 nM; at PTGER4 (EP4) it was 10 nM.

With `CCOc1cc(-c2cc(NCCc3cccc4cnccc34)ncn2)sc1-c1noc(=O)[nH]1` [Example 144, 3-{3-Ethoxy-5-[6-(2-isoquinolin-5-yl-ethylamino)-pyrimidin-4-yl]-thiophen-2-yl}-[1,2,4]oxadiazol-5(4H)-one], the IC50 amounted to 71 nM against EP2, 40 nM against EP4, 30 nM on PTGER2 (EP2) and 20 nM at PTGER4 (EP4).

As to `CCOc1cc(-c2cc(NCCc3c(C)ccc4cnccc34)ncn2)sc1C(=O)O` [Example 85, 3-Ethoxy-5-{6-[2-(6-methyl-isoquinolin-5-yl)-ethylamino]-pyrimidin-4-yl}-thiophene-2-carboxylic acid], the half-inhibitory concentration (IC50) stood at 32 nM at EP2, 130 nM against EP4, 30 nM on PTGER2 (EP2) and 244 nM on PTGER4 (EP4).

Regarding `CCOc1cc(-c2cc(NCCc3c(OC)ccc4ccccc34)ncn2)ccc1-c1noc(=O)[nH]1` [Example 126, 3-(2-Ethoxy-4-{6-[2-(2-methoxy-naphthalen-1-yl)-ethylamino]-pyrimidin-4-yl}-phenyl)-4H-[1,2,4]oxadiazol-5-one], the IC50 was determined as 20 nM against EP2, 43 nM against EP4, 5 nM on PTGER2 (EP2) and 34 nM at PTGER4 (EP4).

In the case of `CSc1cc(-c2cc(NCCc3ccc(Br)c4ccccc34)ncn2)ccc1C(=O)O` [Example 171, 4-{6-[2-(4-Bromo-naphthalen-1-yl)-ethylamino]-pyrimidin-4-yl}-2-methylsulfanyl-benzoic acid], the IC50 was 88 nM on EP2, 130 nM at EP4, 68 nM on PTGER2 (EP2) and 149 nM at PTGER4 (EP4).

For `CCOc1cc(-c2cc(NCCc3c(OC)ccc4ccccc34)ncn2)sc1-c1noc(=O)[nH]1` [Example 138, 3-(3-Ethoxy-5-{6-[2-(2-methoxy-naphthalen-1-yl)-ethylamino]-pyrimidin-4-yl}-thiophen-2-yl)-[1,2,4]oxadiazol-5(4H)-one], the IC50 was 6 nM on EP2, 8 nM on EP4, 3 nM on PTGER2 (EP2) and 4 nM at PTGER4 (EP4).

`COc1ccc2ncccc2c1CCNc1cc(-c2cc(C(F)(F)F)c(C(=O)O)s2)ncn1` [Example 81, 5-{6-[2-(6-Methoxy-quinolin-5-yl)-ethylamino]-pyrimidin-4-yl}-3-trifluoromethyl-thiophene-2-carboxylic acid]: the 50% inhibitory concentration (IC50) on EP2 was 30 nM; at EP4 it was 205 nM; at PTGER2 (EP2), 116 nM; on PTGER4 (EP4), 427 nM.

For `CCOc1cc(-c2cc(NCCc3c(C)ccc4ccccc34)ncn2)sc1C(=O)O` [Example 1, 3-Ethoxy-5-{6-[2-(2-methyl-naphthalen-1-yl)-ethylamino]-pyrimidin-4-yl}-thiophene-2-carboxylic acid], the IC50 on EP2 was 4 nM; at EP4 it was 47 nM; at PTGER2 (EP2), 5 nM; at PTGER4 (EP4), 177 nM.

Consider `CCOc1cc(-c2cc(NCCc3c(OC)ccc4ccccc34)ncn2)sc1C(=O)O` [Example 4, 3-Ethoxy-5-{6-[2-(2-methoxy-naphthalen-1-yl)-ethylamino]-pyrimidin-4-yl}-thiophene-2-carboxylic acid], for which the IC50 against EP2 was found to be 2 nM; against EP4, 15 nM; at PTGER2 (EP2), 2 nM; on PTGER4 (EP4) it was 20 nM.

As for `CCc1nc(-c2cc(NCCc3c(OC)ccc4ccccc34)ncn2)sc1C(=O)O` [Example 148, 4-Ethyl-2-{6-[2-(2-methoxy-naphthalen-1-yl)-ethylamino]-pyrimidin-4-yl}-thiazole-5-carboxylic Acid], the IC50 came to 27 nM on EP2, 548 nM against EP4, 20 nM at PTGER2 (EP2) and 264 nM at PTGER4 (EP4).
